In data set [1] the target is T1, Beta-secretase 1 (Homo sapiens, UniProt P56817). Kind of data set: Inhibition of BACE1 (unknown origin).
Data set [2] is filed under the species Homo sapiens. Briefly: Inhibition of chymotrypsin (unknown origin) up to 1 mM.
For data set [3], the species on record is Homo sapiens. Kind of data set: Inhibition of elastase (unknown origin) up to 1 mM.
The target in data set [4] is T1, Beta-secretase 1. Briefly: Non-competitive inhibition of BACE1 (unknown origin) by Dixon plot analysis.
The target in data set [5] is Trypsin (Homo sapiens) (UniProt P07477+P07478+P35030). Kind of data set: Inhibition of trypsin (unknown origin) up to 1 mM. The class given is protein assay.
In data set [6] the target is Beta-secretase 1 (Mus musculus) (UniProt P56818). Briefly: Inhibition of BACE1 in mouse N2A cells transfected with human APP Swedish mutant assessed as amyloid beta (1-42) production at 50 uM. More on the design: scale not given: the % may be the effect or the level left. The class given is cell-based.
Chain of Beta-secretase 1 (Mus musculus) (P56818 whole entry): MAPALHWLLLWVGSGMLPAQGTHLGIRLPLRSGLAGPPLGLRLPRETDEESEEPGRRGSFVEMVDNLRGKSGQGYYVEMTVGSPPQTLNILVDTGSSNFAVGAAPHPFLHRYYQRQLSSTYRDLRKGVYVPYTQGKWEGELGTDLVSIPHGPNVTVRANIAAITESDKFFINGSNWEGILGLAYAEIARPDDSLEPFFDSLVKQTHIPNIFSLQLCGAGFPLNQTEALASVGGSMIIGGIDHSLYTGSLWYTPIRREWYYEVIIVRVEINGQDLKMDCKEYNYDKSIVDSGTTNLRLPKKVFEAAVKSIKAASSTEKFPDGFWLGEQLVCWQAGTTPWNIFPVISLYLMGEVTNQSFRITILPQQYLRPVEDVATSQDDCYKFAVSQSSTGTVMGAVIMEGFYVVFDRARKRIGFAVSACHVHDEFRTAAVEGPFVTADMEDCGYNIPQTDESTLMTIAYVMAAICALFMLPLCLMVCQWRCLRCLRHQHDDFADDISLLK
The subject of data set [7] is N2a. Briefly: Cytotoxicity against mouse N2A cells transfected with human APP Swedish mutant assessed as cell viability at 1 to 50 uM. The class given is cell-based.
The target in data set [8] is T1, Beta-secretase 1. Kind of data set: Inhibition of BACE1 (unknown origin) expressed in CHO cells coexpressing human APP gene assessed as inhibition of beta-amyloid synthesis. The class given is cell-based.

Calls of active or inactive are those of the source. No cut-off for these calls is given here.

T1 sequence (P56817 whole entry): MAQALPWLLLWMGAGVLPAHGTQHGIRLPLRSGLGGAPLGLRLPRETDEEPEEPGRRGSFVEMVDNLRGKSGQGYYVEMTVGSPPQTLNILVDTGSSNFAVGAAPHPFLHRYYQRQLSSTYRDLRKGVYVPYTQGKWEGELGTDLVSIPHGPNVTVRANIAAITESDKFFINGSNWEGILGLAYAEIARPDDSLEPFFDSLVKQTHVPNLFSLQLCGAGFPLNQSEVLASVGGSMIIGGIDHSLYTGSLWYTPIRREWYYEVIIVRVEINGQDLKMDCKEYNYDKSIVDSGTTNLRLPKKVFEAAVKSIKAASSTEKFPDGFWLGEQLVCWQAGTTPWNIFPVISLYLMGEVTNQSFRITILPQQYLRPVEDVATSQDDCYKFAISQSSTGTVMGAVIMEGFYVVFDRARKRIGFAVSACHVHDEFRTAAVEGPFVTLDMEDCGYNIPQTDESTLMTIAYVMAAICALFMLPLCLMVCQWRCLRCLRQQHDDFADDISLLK

On to `O=C(OC[C@H]1O[C@@H](OC(=O)c2cc(O)c(O)c(O)c2)[C@H](OC(=O)c2cc(O)c(O)c(O)c2)[C@@H](OC(=O)c2cc(O)c(O)c(O)c2)[C@@H]1OC(=O)c1cc(O)c(O)c(O)c1)c1cc(O)c(O)c(O)c1` [PENTAGALLOYL GLUCOSE], for which, in data set [1], 3.76 µM corresponded to half-maximal inhibition (IC50) and the Ki stood at 5.13 µM.

The compound `O=C1O[C@@H]2[C@@H](OC(=O)c3cc(O)c(O)c(O)c3-c3c1cc(O)c(O)c3O)[C@H](O)O[C@@H]1COC(=O)c3cc(O)c(O)c(O)c3-c3c(O)c(O)c4oc(=O)c5c(c(O)c(O)c6oc(=O)c3c4c65)-c3c(cc(O)c(O)c3O)C(=O)O[C@@H]21` [PUNICALAGIN] displayed an IC50 in data set [1] of 0.41 µM.

Turning to `COc1cc2c(c(O)c1C)C(=O)[C@@]1(O)c3cccc(OC)c3OC[C@@H]1O2`, in data set [1], the IC50 turned out to be 62.2 µM and the inhibition result was “Dose-dependent effect”.

Regarding `COC1Oc2cc(O)ccc2-c2c1oc1cc(O)c(C)c(O)c1c2=O` (centres undefined) [BOERAVINONE D], the inhibition result in data set [2], in data set [3] and in data set [5] was “inactive” each time. For the same compound, the Ki in data set [4] amounted to 5.01 µM. Also, the IC50 in data set [1] was 4.77 µM. Besides, in data set [1], the inhibition entry was “Dose-dependent effect”.

`COc1cc2oc3c(c(=O)c2c(O)c1C)-c1ccc(O)cc1OC3O` (centres undefined): the inhibition result in data set [2], in data set [3] and in data set [5] was “inactive” throughout. This compound displayed a Ki in data set [4] of 4.28 µM. Moreover, the results for the Activity in data set [6] and in data set [7] were 56% and “Non-toxic”, respectively. In data set [1], the IC50 was found to be 4.24 µM. Besides, in data set [1], the inhibition entry is “Dose-dependent effect”.

As for `O=C(O[C@@H]1O[C@@H]2COC(=O)c3cc(O)c(O)c(O)c3-c3c(cc(O)c(O)c3O)C(=O)O[C@H]2[C@H](OC(=O)c2cc(O)c(O)c(O)c2)[C@H]1OC(=O)c1cc(O)c(O)c(O)c1)c1cc(O)c(O)c(O)c1` [EUGENIIN], in data set [1], the IC50 came out at 3.1 µM and the affinity, expressed as Ki, was 6.84 µM.

For `COc1cc2oc3c(c(=O)c2c(O)c1C)-c1ccccc1OC3OC` (centres undefined), the half-inhibitory concentration (IC50) in data set [1] is > 3000 µM.

Compound `O=c1oc2c(O)c(O)cc3c(=O)oc4c(O)c(O)cc1c4c23` [ELLAGIC ACID] returned an IC50 in data set [1] of 3.9 µM.

Turning to `C=C[C@H](c1ccccc1O)c1cc(O)c(OC)cc1OC` [LATIFOLIN], in data set [8], the IC50 turned out to be 180 µM.

The record behind these values is ChEMBL document CHEMBL3286369, “β-Secretase (BACE1)-inhibiting C-methylrotenoids from Abronia nana suspension cultures” (Bioorg Med Chem Lett, 2014).
